Source: PubChem BioAssay (NCI)
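In this assay, cells in 96-well plates receive the compound at five concentrations for 48 hours. Endpoints are linearly interpolated between the surrounding concentrations. The concentration for 50% growth inhibition is given as GI50. The concentration for full growth arrest is given as TGI.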

Key:
Test in all cases: DTP human tumour cell line panel, 48 h
[1] = tested on: NCI-H23 lung
[2] = tested on: NCI-H460 lung
[3] = tested on: NCI-H522 lung
[4] = tested on: NCI/ADR-RES ovarian
[5] = tested on: OVCAR-3 ovarian
[6] = tested on: OVCAR-4 ovarian
[7] = tested on: OVCAR-5 ovarian
[8] = tested on: OVCAR-8 ovarian
[9] = tested on: PC-3 prostate
[10] = tested on: RPMI-8226 leukemia
[11] = tested on: RXF 393 renal
[12] = tested on: SF-268 CNS
[13] = tested on: SF-295 CNS
[14] = tested on: SF-539 CNS
[15] = tested on: SK-MEL-2 melanoma
[16] = tested on: SK-MEL-28 melanoma
[17] = tested on: SK-MEL-5 melanoma
[18] = tested on: SK-OV-3 ovarian
[19] = tested on: SN12C renal
[20] = tested on: SNB-19 CNS
[21] = tested on: SNB-75 CNS
[22] = tested on: SR leukemia
[23] = tested on: SW-620 colon
[24] = tested on: T-47D breast
[25] = tested on: TK-10 renal
[26] = tested on: U251 CNS
[27] = tested on: UACC-257 melanoma
[28] = tested on: UACC-62 melanoma
[29] = tested on: UO-31 renal

## CC(=O)OCc1cc[c]([Hg][Cl])o1
[1]
  TGI: 29.7 µM
[2]
  GI50: 15.5 µM
  TGI: 45.6 µM
[3]
  GI50: 709 nM
  TGI: 2450 nM
[4]
  GI50: 10.8 µM
  TGI: 39.1 µM
[5]
  GI50: 3.97 µM
  TGI: 16.2 µM
[6]
  GI50: 12.7 µM
  TGI: 43 µM
[7]
  GI50: 11.8 µM
  TGI: 30.2 µM
[8]
  GI50: 11.4 µM
  TGI: 57.7 µM
[9]
  GI50: 11 µM
  TGI: 24.2 µM
[10]
  GI50: 4.69 µM
  TGI: 34.9 µM
[11]
  GI50: 5.12 µM
  TGI: 17.4 µM
[12]
  GI50: 8.78 µM
  TGI: 21.8 µM
[13]
  GI50: 14.3 µM
  TGI: 28.8 µM
[14]
  GI50: 4.97 µM
  TGI: 21.2 µM
[15]
  GI50: 16.7 µM
  TGI: 32.2 µM
[16]
  GI50: 2730 nM
  TGI: 7.84 µM
[17]
  GI50: 4.38 µM
  TGI: 15.9 µM
[18]
  GI50: 22.5 µM
  TGI: 53.6 µM
[19]
  GI50: 5.24 µM
  TGI: 29.9 µM
[20]
  GI50: 3.08 µM
  TGI: 12 µM
[21]
  GI50: 12.8 µM
  TGI: 51.4 µM
[22]
  GI50: 619 nM
  TGI: 12.3 µM
[23]
  GI50: 1600 nM
  TGI: 3.82 µM
[24]
  GI50: 1360 nM
  TGI: 3.98 µM
[25]
  GI50: 2720 nM
  TGI: 5.89 µM
[26]
  GI50: 2000 nM
  TGI: 5.02 µM
[27]
  GI50: 13.5 µM
  TGI: 26.8 µM
[28]
  GI50: 2590 nM
  TGI: 11.3 µM
[29]
  GI50: 1820 nM
  TGI: 3.45 µM
